Test results published in US8507440B2, “Protein kinase C peptides for use in withdrawal” (The Board of Trustees of the Leland Stanford Junior …, priority 2002, dated 2013).
Ends that are not written are not given here.

Experiments:
[1] = system: postnatal day 7 rats; assay: naloxone-precipitated morphine withdrawal, mechanical threshold and thermal paw withdrawal latency in vivo; set-up: species or system rat; conditions: for block of naloxone-precipitated morphine withdrawal allodynia and hyperalgesia: 10 μM in 5 μl intrathecally prior to morphine 1 mg/kg s.c., naloxone 0.25 mg/kg 30 min after morphine
Method: In vivo studies on opiate withdrawal allodynia and hyperalgesia were conducted using postnatal day 7 rats. As described in Example 2, postnatal day 7 rats were given morphine subcutaneously followed 30 minutes later by naloxone or saline. Mechanical threshold using von Frey filaments to produce the flexion withdrawal response of the hind paw and thermal stimulation to measure the paw withdrawal latency were measured as described in Example 2.
FIG. 5A illustrates a treatment protocol where rat pups were given a PKC antagonist intrathecally (e.g., directly into the cerebrospinal fluid surrounding the spinal cord) prior to subcutaneous morphine delivery. Thirty minutes after morphine delivery, naloxone was administered, followed by mechanical allodynia and thermal hyperalgesia testing (as described in Example 2).
Postnatal day 7 Sprague-Dawley rats (Charles River Laboratories) of both sexes were used. For all behavioural experiments rats were maintained at nesting temperature with overhead heatlamps.
To measure mechanical thresholds, rats were placed on an elevated wire mesh (2 mm openings). Von Frey hairs (Stoelting Co., WoodDale, Ill., USA) were used to elicit a cutaneous flexion withdrawal response as described by Fitzgerald et al. (Fitzgerald M., et al., PAIN […] INFANTS, CHILDREN AND ADOLESCENTS; Schetchter and Yaster, Eds., pp 11-32, Williams and Williams (Baltimore, Md.) (1993). Von Frey hairs of increasing intensity were applied three times to the plantar surface of the left hind paw until a paw withdrawal was elicited. The lowest intensity Von Frey hair required to produce a withdrawal reflex was recorded as the response threshold to a low-intensity mechanical stimulus.
Thermal paw withdrawal latencies were measured using the Ugo Basile Plantar Testing apparatus (Stoelting Co., WoodDale, Ill., USA). Briefly, postnatal day 7 rats were placed under inverted Plexiglas enclosures and the plantar surface of the left hindpaw was heated from below with the IR intensity of the lamp set at 30. Two baseline thermal response latency measures were collected prior to morphine administration with a cut-off of 20 seconds enlisted to prevent tissue damage.
Postnatal day 7 rats were administered 1 mg/kg morphine sulfate (Sigma) subcutaneously in 50 μl saline. Mechanical thresholds were measured 15 minutes later to establish analgesia. Rats were returned to their dam. At 30 or 120 minutes post morphine, rats were administered 0.25 mg/kg naloxone (Sigma) subcutaneously in 50 μl saline. Mechanical thresholds and thermal paw withdrawal latencies were measured in 10 minute intervals. Tat conjugated peptide inhibitors specific to the ε (εV1-2; SEQ ID NO:1, 10 μM) and γ ([…]; SEQ ID NO:2, 10 μM) isoforms of PKC, Tat carrier (10 μM), or saline were administered in 5 μl volumes intrathecally via direct lumbar puncture using a sterile 29 gauge 3/10 cc insulin syringe in rats lightly anesthetized with halothane. To allow for complete recovery from anesthetic, animals were administered peptides or control solutions 30 minutes prior to naloxone.
An unpaired T-test was used to determine the significance of post-naloxone measures from baseline measures. Significance between treatment groups for PKC inhibitor studies both in vivo and in vitro was determined by one way analysis of variance (ANOVA) followed by a post-hoc Bonferroni analysis. P-values<0.05 were considered significant. All statistical analysis was done with GraphPad Prism version 3.02.

[2] = system: isolated spinal cords; assay: slow ventral root potential (sVRP) of isolated spinal cord, naloxone-precipitated morphine withdrawal hyperresponsiveness; type: cell-based, rat; conditions: for sVRP area 30 minutes after naloxone / block of naloxone-precipitated withdrawal hyperresponsiveness of sVRP: morphine 200 nM then naloxone 200 nM, GF109203X 1.2 μM, Go6976 1 μM, εV1-2 2 nM; for block of naloxone-precipitated withdrawal hyperresponsiveness of sVRP: γV5-3 4 nM, Tat 2-4 nM
Excerpt: The slow ventral root potential (sVRP) is an electrophysiolgical measurement of nociceptive-related response in the spinal cord lasting approximately 40 seconds (Yanagisawa et al., Eur. J. Pharmacol., 106:231-239 (1984); Akagi H. et al., British J. Pharmacol., 84:663-673 (1985); Otsuka M. et al., J. Physiol., 395:255-270 (1988)). It is evoked by stimulation of a lumbar dorsal root at an intensity sufficient to activate small diameter afferents that transmit nociceptive (painful) stimuli from the periphery to the spinal cord (Lozier A. P. et al., J. Neurophysiol., 74:1001-1009 (1995)). […] Thus, the sVRP is related to pain, and its exaggeration following naloxone is a manifestation of withdrawal which translates to an increase in pain sensation in vivo.
Spinal cords from 4-7 day old rats (Charles River Laboratories) were removed and arranged for electrophysiological recording of the slow ventral root potentials (sVRP) (Woodley S. J., et al., Brain Res., 559:17-21 (1991). Briefly, pups were decapitated under halothane anesthesia and the spinal cord removed to an oxygenated artificial cerebrospinal fluid solution. A suction stimulating electrode was placed on a lumbar dorsal root and a suction recording electrode on the corresponding ipsilateral ventral root. Square wave stimuli 0.2 ms in duration were administered at a constant frequency of 1/50 seconds throughout the experiment. Test agents were applied and the responses were recorded, digitized, and area under the curve measured.
After a baseline reading of the sVRP, morphine (200 nM) was applied to the isolated spinal cords. The sVRP was again recorded to characterize the response to morphine. Naloxone (200 nM) was then applied and the sVRPs recorded.
FIGS. 2A-2D show the results after application of non-specific PKC antagonist, GF109203X (1.2 μM), and of an inhibitor specific to Ca++-dependent PKC isoforms, Go6976 (1 μM).
FIGS. 3A-3B show the results after application of the εPCK antagonist (εV1-2; SEQ ID NO:1, 2 nM), conjugated to a peptide carrier (Tat; SEQ ID NO:3) and the Tat peptide alone (2 nM; SEQ ID NO:3). FIGS. 3C-3D show the results after application of γPKC (γV5-3; SEQ ID NO:2, 4 nM) conjugated to a peptide carrier (Tat; SEQ ID NO:3) and of the Tat peptide alone (4 nm; SEQ ID NO:3).

[3] = system: 7 day old and 21 day old rats; assay: ethanol withdrawal thermal hyperalgesia testing (paw withdrawal latency); type: in vivo, rat; conditions: 7 day old rats; intrathecally 4 hours after 4 g/kg 15% EtOH
[4] = system: 7 day old and 21 day old rats; assay: ethanol withdrawal mechanical allodynia testing (von Frey threshold withdrawal force); type: in vivo, rat
[5] = system: N-methyl-D-aspartate (NMDA) receptor currents; assay: alcohol withdrawal hyperresponsiveness of NMDA-evoked currents in lumbar spinal cord slice motor neurons; type: cell-based, rat
Excerpt: Spinal cords were taken from young rats, and slices of these cords were made and placed in artificial cerebrospinal fluid for patch clamp electrophysiological analysis, to characterize the ability of γPKC peptides to mediate alcohol withdrawal hyperresponsiveness of N-methyl-D-aspartate (NMDA) receptor currents. FIG. 7A is a schematic diagram of the technique, where a lumbar spinal cord slice 10 is shown. The placement of a recording electrode 12 and a pipette 14 for application of NMDA relative to a motor neuron 16 is illustrated.
Sprague-Dawley rats at postnatal day 7-10 were anesthetized with halothane, decapitated, and the spinal cords were quickly removed. Slices […] thick were sectioned from the lumbar region. Whole cell voltage clamp recordings were made from visually-identified motor neurons using infrared video microscopy, a 60× water immersion lens, and a MultiClamp 700A patch clamp amplifier. Cells were held at a holding potential of −60 mV in artificial cerebrospinal fluid (ACSF) containing bicuculline methiodide ([…]), strychnine ([…]), and tetrodotoxin ([…]). Postsynaptic currents were evoked by direct pressure application of 2 mM N-methyl-D-aspartate (NMDA) from a pipette positioned near the recorded cell at 1-2 min intervals, as illustrated in FIG. 7A. The area of evoked currents during and following 100 mM ethanol (EtOH) application was measured and normalized to the average baseline current area during the 10 minutes preceding EtOH application. Data are expressed as mean +/−SEM: Statistical significance was determined by one-way ANOVA followed by Dunn's or Tukey's multiple comparison test with significance set at p<0.05.

εV1-2: εPKC antagonist peptide, SEQ ID NO:1, isozyme-specific translocation inhibitor, used Tat-conjugated (EAVSLKPT; also: Tat peptide conjugate; listed as Homo sapiens)
block of naloxone-precipitated morphine withdrawal allodynia and hyperalgesia [1]: effective to block naloxone-precipitated morphine withdrawal allodyina and hyperalgesia
effect on sVRP of inhibitor alone ([2]; absence of morphine): did not alter the sVRP
sVRP area 30 minutes after naloxone [2]: 102 % of control
block of naloxone-precipitated withdrawal hyperresponsiveness of sVRP [2]: blocked withdrawal hyperresponsiveness
thermal hyperalgesia, paw withdrawal latency [3]: completely prevented thermal hyperalgesia
mechanical allodynia, threshold withdrawal force ([4]; 7 day old rats, 5 μL of 20 μM intrathecally 5 hours after 4 g/kg 15% EtOH i.p., 6 and 7 hour post-EtOH, versus Tat carrier): attenuated mechanical allodynia
mechanical allodynia, threshold withdrawal response ([4]; 21 day old rats, 10 μL of 20 μM intrathecally 4 hours after 4 g/kg 15% EtOH i.p.): slightly attenuated the response at 6 hours and 8 hours post ethanol injection

O=C(O)CN(CC(=O)O)c1ccccc1OCCOc1ccccc1N(CC(=O)O)CC(=O)O [BAPTA, 1,2-bis(2-aminophenoxy)ethane-N,N,N′,N′-tetraacetic acid, reference compound]
ethanol withdrawal hyperresponsiveness of NMDA-evoked currents with calcium chelator ([5]; 30 mM in recording pipette): no ethanol-withdrawal hyperresponsiveness

Cn1c2ccccc2c2c3c(c4c5ccccc5n(CCC#N)c4c21)CNC3=O [Go6976]
sVRP area 30 minutes after naloxone [2]: 127.4 % of control
block of naloxone-precipitated withdrawal hyperresponsiveness of sVRP [2]: did not block withdrawal

Tat: Tat-derived carrier peptide (Tat 47-57), control for the conjugated inhibitors
block of naloxone-precipitated morphine withdrawal allodynia and hyperalgesia [1]: did not prevent allodynia and hyperalgesia
effect on ethanol withdrawal hyperresponsiveness of NMDA-evoked currents ([5]; 10 nM Tat carrier alone): does not prevent the symptom
block of naloxone-precipitated withdrawal hyperresponsiveness of sVRP [2]: did not block the withdrawal response

C=CCN1CC[C@]23c4c5ccc(O)c4O[C@H]2C(=O)CC[C@@]3(O)[C@H]1C5 [naloxone]
mechanical threshold and paw withdrawal latency, naloxone after morphine ([1]; naloxone 0.25 mg/kg s.c. following 30 minutes of morphine exposure): precipitated mechanical allodynia and thermal hyperalgesia
mechanical threshold and paw withdrawal latency, naloxone alone ([1]; no morphine): did not alter paw withdrawal thresholds to mechanical stimulation or paw withdrawal latency to thermal stimulation
sVRP area 30 minutes after naloxone [2]: 140.9 % of control

CN1CC[C@]23c4c5ccc(O)c4O[C@H]2[C@@H](O)C=C[C@H]3[C@H]1C5 [morphine]
paw withdrawal threshold and latency after morphine ([1]; morphine 1 mg/kg s.c., then saline): exhibited profound analgesia
effect of morphine on sVRP ([2]; morphine 200 nM): depressed

COc1ccc2c(c[n+](C)c3c4cc5c(cc4ccc23)OCO5)c1OC [chelerythrine]
sVRP area 30 minutes after naloxone [2]: 100.1 % of control
block of naloxone-precipitated withdrawal hyperresponsiveness of sVRP [2]: did block morphine withdrawal
effect on the response to morphine ([2]; morphine-exposed spinal cords): did not alter the response to morphine

CN(C)CCCn1cc(C2=C(c3c[nH]c4ccccc34)C(=O)NC2=O)c2ccccc21 [GF109203X]
sVRP area 30 minutes after naloxone [2]: 87 % of control
block of naloxone-precipitated withdrawal hyperresponsiveness of sVRP [2]: blocked the withdrawal hyperresponsivess
